Measurements published in ChEMBL document CHEMBL5055680, “AMPK inhibitor BML-275 induces neuroprotection through decreasing cyt c and AIF expression after transient brain ischemia” (2021).
Activity calls are given as the source filed them. The calls are words filed in the database; no cut-off is given here.

What was measured:
[1] = (§1) Downregulation of cyt-c expression in cortex of C57BL/6 mouse model of transient middle cerebral artery occlusion induced cerebral ischemia reperfusion injury at 10 mg/kg, ip measured after 24 hrs of reperfusion by immunohistochemistry (reference value: 15.58 +/- 2.34); assay type: functional
[2] = Downregulation of cyt-c expression in hippocampus of C57BL/6 mouse model of transient middle cerebral artery occlusion induced cerebral ischemia reperfusion injury at 10 mg/kg, ip measured after 24 hrs of reperfusion by immunohistochemistry (reference value: 20.52+/- 2.08); assay type: functional
Mus musculus [3] = experiment: (§2) Neuroprotective activity in C57BL/6 mouse model of transient middle cerebral artery occlusion induced cerebral ischemia reperfusion injury assessed as inhibition of apoptosis by measuring decrease in TUNEL positive nuclei in cortex at 10 mg/kg, ip measured after 12 hrs by TUNEL staining based assay (reference value: 53.64 +/- 7.63); assay type: functional
[4] = Downregulation of cyt-c expression in hippocampus of C57BL/6 mouse model of transient middle cerebral artery occlusion induced cerebral ischemia reperfusion injury measured after 24 hrs of reperfusion by immunohistochemistry; assay type: functional
Mus musculus [5] = experiment: Neuroprotective activity in C57BL/6 mouse model of transient middle cerebral artery occlusion induced cerebral ischemia reperfusion injury assessed as neurological deficits at 10 mg/kg, ip measured 24 hrs after reperfusion by […] (reference value: 5.86 +/- 0.64); assay type: functional
Mus musculus [6] = experiment: as §2, with “hippocampus” for “cortex”, “55.42” for “53.64”, “4.86)” for “7.63)”; assay type: functional
Mus musculus [7] = experiment: Neuroprotective activity in C57BL/6 mouse model of transient middle cerebral artery occlusion induced cerebral ischemia reperfusion injury assessed reduction in infarct size at 10 mg/kg, ip measured after 24 hrs by TTC staining based assay; assay type: functional, organism-based
Mus musculus [8] = species on record: Mus musculus; experiment: Neuroprotective activity in C57BL/6 mouse model of transient middle cerebral artery occlusion induced cerebral ischemia reperfusion injury assessed as neuronal apoptosis by measuring increase in caspase-3 positive cells incubated for 1 hrs by immunohistochemistry; assay type: functional, organism-based
Mus musculus [9] = experiment: Neuroprotective activity in C57BL/6 mouse model of transient middle cerebral artery occlusion induced cerebral ischemia reperfusion injury assessed as inhibition of apoptosis by measuring decrease in caspase-3 positive cells in cortex at 10 mg/kg, ip incubated for 1 hrs by immunohistochemistry (reference value: 7.58 +/- 2.15); assay type: functional
[10] = as §1, with “AIF” for “cyt-c”, “injury assessed as AIP-posotive cells in ischemic cortex” for “injury”, “46.7” for “15.58”, “3.45)” for “2.34)”; assay type: functional
Mus musculus [11] = species on record: Mus musculus; experiment: Neuroprotective activity in C57BL/6 mouse model of transient middle cerebral artery occlusion induced cerebral ischemia reperfusion injury assessed as neuronal apoptosis by measuring increase in TUNEL positive nuclei measured after 12 hrs by TUNEL staining based assay; assay type: functional, organism-based
[12] = as §1, with “AIF” for “cyt-c”, “injury assessed as AIP-posotive cells in hippocampus” for “injury”, “27.35” for “15.58”, “3.67)” for “2.34)”; assay type: functional
[13] = Downregulation of cyt-c expression in cortex of C57BL/6 mouse model of transient middle cerebral artery occlusion induced cerebral ischemia reperfusion injury measured after 24 hrs of reperfusion by immunohistochemistry; assay type: functional
Mus musculus [14] = experiment: Neuroprotective activity in C57BL/6 mouse model of transient middle cerebral artery occlusion induced cerebral ischemia reperfusion injury assessed as change in infract volume at 10 mg/kg, ip measured after 24 hrs by TTC staining based assay (reference value: 21.86 +/- 4.65 %); assay type: functional

c1cc(-c2cnn3cc(-c4ccc(OCCN5CCCCC5)cc4)cnc23)ccn1 [DORSOMORPHIN]
fold change (FC) [1]: 45.32 | fold change (FC) [2]: 52.08 | Activity (Mus musculus [3]): 53.64 | fold change (FC) [4]: 52.08 | Activity (Mus musculus [5]): 9.26 | Activity (Mus musculus [6]): 55.42 | Activity (Mus musculus [7]): Active | Activity (Mus musculus [8]): Active | Activity (Mus musculus [9]): 15.63 | fold change (FC) [10]: 26.36 | Activity (Mus musculus [11]): Active | fold change (FC) [12]: 13.17 | fold change (FC) [13]: 45.32 | Activity (Mus musculus [14]): 42.56%
